Here are results for 5 compounds from patent US8283373B2, “Inhibitors of cytosolic phospholipase A2” (Pfizer Inc., priority 2005, dated 2012).

The target of assay [1] is T1, cPLA2α (Homo sapiens, UniProt P47712).
T1 sequence (P47712 1-749): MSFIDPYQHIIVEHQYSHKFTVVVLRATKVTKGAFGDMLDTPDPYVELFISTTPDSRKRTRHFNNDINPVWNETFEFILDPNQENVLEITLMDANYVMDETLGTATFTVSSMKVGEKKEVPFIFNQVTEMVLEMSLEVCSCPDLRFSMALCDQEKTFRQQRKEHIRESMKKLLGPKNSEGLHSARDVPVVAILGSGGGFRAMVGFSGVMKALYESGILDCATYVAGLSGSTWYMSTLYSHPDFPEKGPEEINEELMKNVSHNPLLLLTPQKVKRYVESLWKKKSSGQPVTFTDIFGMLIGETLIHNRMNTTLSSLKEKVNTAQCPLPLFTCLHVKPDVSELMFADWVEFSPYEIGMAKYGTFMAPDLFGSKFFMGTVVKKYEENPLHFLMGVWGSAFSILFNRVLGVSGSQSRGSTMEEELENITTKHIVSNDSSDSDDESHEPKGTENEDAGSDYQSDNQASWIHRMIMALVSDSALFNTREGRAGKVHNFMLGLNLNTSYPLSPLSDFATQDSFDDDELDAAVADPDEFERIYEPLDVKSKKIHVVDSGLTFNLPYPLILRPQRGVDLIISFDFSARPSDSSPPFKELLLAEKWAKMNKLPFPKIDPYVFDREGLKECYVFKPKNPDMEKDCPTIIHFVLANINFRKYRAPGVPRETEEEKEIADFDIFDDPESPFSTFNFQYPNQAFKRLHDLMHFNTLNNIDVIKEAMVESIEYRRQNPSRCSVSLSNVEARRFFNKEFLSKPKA
The experiment in a line: GLU Micelle Assay. The format is biochemical. The method, then: The assay was carried in a 96-well format using a fluorescent plate reader with a 355 nm excitation filter and a 460 nm emission filter (Lab Systems Fluoroscan II, Helsinki, Finland). The assay buffer contained 940 μM Triton X-100, 50 mM Hepes pH 7.4, 0.3 mM EDTA, 1 mM CaCl2 and 300 mM KCl. DTPC (1,2-O-tetradecyl-sn-glycero-3-phosphocholine, Avanti) at a final concentration of 120 μM was added the day of the experiment and GLU (7-Hydroxycoumarinyl-γ-linolenate, Biomol Research Lab, Inc.) at a final concentration of 90 μM was added immediately prior to each assay.
Compounds (10 μL) dissolved in DMSO were placed in duplicate wells of a black 96-well plate. Wells corresponding to the positive and negative controls contained DMSO without inhibitors. Just prior to the experiment, 200 μL assay buffer containing 90 μM GLU and 120 μM DTPC was added to all wells in the assay plate. Assay buffer (50 μL) was added to the negative, and 50 μL cPLA2α solution ([…] in assay buffer) was added to all other wells to initiate the reaction. The final concentration of enzyme was 1 μg/ml. The content of each well was mixed gently during the addition of the enzyme, and the plate was rapidly transferred to the fluorescent plate reader. The increase in fluorescence was read every 4 min for 84 min. The slope of the resulting line was determined and the inhibition was calculated using the equation below: Percent Inhibition=[1−(slope with inhibitor−slope negative control)/(slope positive control−slope negative control)]×100 Rat Whole Blood Assay

For assay [2], the system named is TXB2. The experiment in a line: Rat Whole Blood Assay (A23187-stimulated TXB2). The class given is cell-based. The note with it: Rattus norvegicus; A23187 5 μM. The method, then: Fresh blood was collected in heparinized tubes by cardiac puncture of male Sprague-Dawley rats. Aliquots of blood (0.6 mL) were incubated with either 6 μL solvent (DMSO), or 6 μL of test compounds at various concentrations for 15 minutes at 37° C. This was followed by incubation of the blood with 6 μL of calcium ionophore, A23187 (Sigma C-7522) diluted in DMSO for 10 min at 37° C. The final concentration of A23187 was 5 μM. DMSO (6 μL) was added in the unstimulated controls. The reactions were stopped by mixing 60 μL cold EDTA to give a final concentration of 20 mM. The blood was centrifuged at 6,500 rpm for 10 min on a microcentrifuge to obtain plasma. A 70 μL aliquot of plasma was mixed with 400 μL cold methanol for protein precipitation. After incubation at −80° C. for 30 min, the supernatant was obtained by centrifuging at 6,500 rpm for 10 min, and was assayed for TXB2 according to the manufacturer's procedure (Assay Designs, Inc.'s ELISA kit #900-002).

A word on the IC50: it is the midpoint of a concentration-inhibition curve. A low value points to inhibition by little substance.

For the compound `O=C(O)c1ccc(CCCc2c(CCNS(=O)(=O)Cc3ccccc3-c3ccccc3OC(F)(F)F)n(C(c3ccccc3)c3ccccc3)c3ccc(Cl)cc23)cc1` [Example 36, 4-[3-(5-chloro-1-(diphenylmethyl)-2-{2-[({[2′-(trifluoromethoxy)biphenyl-2-yl]methyl}sulfonyl)amino]ethyl}-1H-indol-3-yl)propyl]benzoic acid], the IC50 in assay [1] came out at 31 nM; in assay [2], 70 nM.
Taken in the same sequence, the figures for `N#Cc1ccccc1-c1ccccc1CS(=O)(=O)NCCc1c(CCCc2ccc(C(=O)O)cc2)c2cc(Cl)ccc2n1C(c1ccccc1)c1ccccc1` [Example 37, 4-{3-[5-chloro-2-[2-({[(2′-cyanobiphenyl-2-yl)methyl]sulfonyl}amino)ethyl]-1-(diphenylmethyl)-1H-indol-3-yl]propyl}benzoic acid] were 25 nM and 30 nM.
Taken in the same sequence, the figures for `O=C(O)CCc1ccc(S(=O)(=O)CCc2c(CCNS(=O)(=O)Cc3ccccc3C(F)(F)F)n(C(c3ccccc3)c3ccccc3)c3ccc(Cl)cc23)cc1` [Example 38, 3-{4-[(2-{5-chloro-1-(diphenylmethyl)-2-[2-({[2-(trifluoromethyl)benzyl]sulfonyl}amino)ethyl]-1H-indol-3-yl}ethyl)sulfonyl]phenyl}propanoic acid] were 7 nM and 10 nM.
Taken in the same sequence, the figures for `CC(c1ccccc1C(F)(F)F)S(=O)(=O)NCCc1c(CCS(=O)(=O)c2ccc(CCC(=O)O)cc2)c2cc(Cl)ccc2n1C(c1ccccc1)c1ccccc1` (stereo not shown) [Example 39, 3-(4-{[2-(5-chloro-1-(diphenylmethyl)-2-{2-[({1-[2-(trifluoromethyl)phenyl]ethyl}sulfonyl)amino]ethyl}-1H-indol-3-yl)ethyl]sulfonyl}phenyl)propanoic acid] were 68 nM and 20 nM.
With `O=C(O)c1ccc(CCCc2c(CCNS(=O)(=O)Cc3ccccc3O)n(C(c3ccccc3)c3ccccc3)c3ccc(Cl)cc23)cc1` [Example 40, 4-{3-[5-chloro-1-(diphenylmethyl)-2-(2-{[(2-hydroxybenzyl)sulfonyl]amino}ethyl)-1H-indol-3-yl]propyl}benzoic acid], the IC50 in assay [1] stood at 72 nM; in assay [2], 60 nM.
